Measured values as given in patent US20110319392A1, “Thiazole Sulfonamide And Oxazole Sulfonamide Kinase Inhibitors” (priority 2009, published 2011).

Target: T1, EGFR (Homo sapiens, UniProt P00533)
T1 construct: made in house; host or cells: baculovirus expression system
Assay: EGFR substrate phosphorylation assay (HTRF)
Format: biochemical
How it was run: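 Baculovirus-expressed EGFR (0.8 nM) or ErbB2 (10 nM) in enzyme mix, preincubated 1 h at 20 °C with compound (0.00027–47.6 μM final), then 90 min at 20 °C with substrate mix of 20 μM ATP, 0.8 uM biotinylated Peptide C, MnCl2, MOPS pH 7.5. Phosphotyrosine by HTRF; pIC50 reported.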

T1 sequence (P00533 25-1210): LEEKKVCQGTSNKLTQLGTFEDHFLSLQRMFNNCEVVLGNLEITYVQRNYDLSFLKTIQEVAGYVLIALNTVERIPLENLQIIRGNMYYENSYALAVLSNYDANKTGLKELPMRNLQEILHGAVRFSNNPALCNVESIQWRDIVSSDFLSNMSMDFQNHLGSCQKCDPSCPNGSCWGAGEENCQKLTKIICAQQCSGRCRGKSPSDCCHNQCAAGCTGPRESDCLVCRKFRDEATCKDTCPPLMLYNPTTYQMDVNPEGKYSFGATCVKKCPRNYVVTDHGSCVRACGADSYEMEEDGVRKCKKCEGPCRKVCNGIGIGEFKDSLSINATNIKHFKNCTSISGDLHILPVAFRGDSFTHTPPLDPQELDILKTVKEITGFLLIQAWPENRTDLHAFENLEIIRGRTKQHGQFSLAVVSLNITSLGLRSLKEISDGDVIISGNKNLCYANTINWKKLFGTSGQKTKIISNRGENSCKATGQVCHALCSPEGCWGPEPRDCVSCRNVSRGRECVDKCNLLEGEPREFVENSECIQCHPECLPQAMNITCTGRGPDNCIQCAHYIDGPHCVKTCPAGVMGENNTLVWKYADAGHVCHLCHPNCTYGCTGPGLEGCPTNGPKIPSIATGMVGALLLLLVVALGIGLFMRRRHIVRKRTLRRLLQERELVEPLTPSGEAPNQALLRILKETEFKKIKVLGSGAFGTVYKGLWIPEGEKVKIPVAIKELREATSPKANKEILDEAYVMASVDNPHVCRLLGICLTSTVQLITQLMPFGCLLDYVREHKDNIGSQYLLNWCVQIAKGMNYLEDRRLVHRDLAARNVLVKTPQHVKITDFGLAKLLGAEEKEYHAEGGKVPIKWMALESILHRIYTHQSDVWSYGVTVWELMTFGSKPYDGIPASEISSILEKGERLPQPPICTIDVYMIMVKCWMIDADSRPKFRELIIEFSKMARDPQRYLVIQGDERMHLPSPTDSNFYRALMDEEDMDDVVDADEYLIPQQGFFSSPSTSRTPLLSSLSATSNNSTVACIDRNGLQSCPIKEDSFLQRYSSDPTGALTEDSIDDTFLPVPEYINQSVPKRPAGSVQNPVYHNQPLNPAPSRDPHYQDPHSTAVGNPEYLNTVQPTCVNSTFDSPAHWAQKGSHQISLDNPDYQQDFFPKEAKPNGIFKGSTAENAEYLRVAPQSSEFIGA

SMILES	IC50
COc1ccc(S(C)(=O)=O)cc1Nc1nccc(-c2sc(N3CCOCC3)nc2-c2cccc(NS(=O)(=O)c3c(F)cccc3F)c2F)n1 [Example 157]	> 1000 nM
Cc1cc(Nc2nccc(-c3sc(C(C)(C)C)nc3-c3cccc(NS(=O)(=O)c4c(F)cccc4F)c3F)n2)ccn1 [Example 159]	> 1000 nM
O=S(=O)(Nc1cccc(-c2ncsc2-c2ccnc(Nc3ccc(N4CCOCC4)nc3)n2)c1)c1c(F)cccc1F [Example 162]	100 to 1000 nM
CCNc1nc(-c2ccc(F)c(NS(=O)(=O)c3c(F)cccc3F)c2)c(-c2ccnc(Nc3ccc(N4CCOCC4)nc3)n2)s1 [Example 166]	100 to 1000 nM
CS(=O)(=O)CCN1CCN(c2ccc(Nc3nccc(-c4oc(N5CCCC5)nc4-c4cccc(NS(=O)(=O)c5c(F)cccc5F)c4F)n3)cc2F)CC1 [Example 167]	100 to 1000 nM
